This is an account of results in patent US10421761B2, “Compounds for kinase modulation, and indications therefor” (Plexxikon Inc., priority 2013, dated 2019).

“Also recorded” adds a separate entry of the source. Like-named read-outs stand apart in the source and are kept apart here.

For orientation: IC50 means the concentration needed to halve the response being measured. Low readings indicate higher potency, high ones lower potency. In general, EC50 refers to the concentration that produces a half-maximal response.

For assay [1], the system named is IPC-298 (NRAS Q61L) cell line. The experiment in a line: IPC-298 P-ERK cell activation assay (AlphaScreen). Type of assay: cell-based, human. The conditions noted are these: for EC50: Homo sapiens, P-ERK cell activation, IPC-298, read-out: Cell activity (EC50 μM) IPC-298_P-ERK. As for the experimental part:
(§1) B9 is a squamous cell carcinoma cell line expressing activated HRAS that was isolated from a DMBA/TPA-induced mouse model of skin carcinogenesis (Stoler, et al. The Journal of Cell Biology, 1993, 122(5), 1103-17). IPC-298 is a human melanoma cell line that expresses activated NRAS (Aubert, et al. International Journal of Cancer, 1993, 54(5), 784-92). To determine whether compounds induce phosphorylated ERK and MEK, cells are plated in a 96-well dish and treated with an 8-point titration of compound for one hour at 37° C. The media is then removed and the cells are incubated with lysis buffer containing protease and phosphatase inhibitors. Phosphorylated ERK and MEK in the resulting lysates is detected using AlphaScreen™ technology. To detect phosphorylated ERK, cell lysates are incubated with streptavidin-coated donor beads, anti-mouse IgG acceptor beads, a biotinylated anti-ERK1/2 rabbit antibody, and a mouse antibody that recognizes ERK1/2 only when it is phosphorylated on Thr202 and Tyr204. The biotinylated ERK1/2 antibody will bind to both the streptavidin-coated donor beads and to ERK1/2 (regardless of its phosphorylation state), and the phospho-ERK1/2 antibody will bind to the acceptor beads and to ERK1/2 that is phosphorylated at Thr202/Tyr204. Excitation of the beads with laser light at 680 nm produces singlet oxygen, which is rapidly quenched unless the beads are in close proximity. When ERK is phosphorylated, both antibodies can bind the same protein, bringing the donor and acceptor beads into close proximity, producing a signal that can be measured at 580 nm. MEK phosphorylation is detected using a similar approach, only with antibodies directed against total MEK1/2 and MEK1/2 that is phosphorylated at Ser217 and Ser221.
(§2) Phospho-ERK AlphaScreen® assay. To determine the effects of compound treatment upon phosphorylation of ERK1/2, cells were plated in a 96-well dish and treated with an 8-point titration of compound for one hour at 37° C. before lysis. To detect pERK, cell lysates were incubated with streptavidin-coated AlphaScreen® donor beads, anti-mouse IgG AlphaScreen® acceptor beads, a biotinylated anti-ERK1/2 rabbit antibody, and a mouse antibody that recognizes ERK1/2 only when it is phosphorylated on Thr202 and Tyr204. The biotinylated ERK1/2 antibody binds to both the streptavidin-coated AlphaScreen® donor beads and to ERK1/2 (regardless of its phosphorylation state), and the phospho-ERK1/2 antibody binds to the acceptor beads and to ERK1/2 that is phosphorylated at Thr202/Tyr204. An increase in ERK1/2 phosphorylation at Thr202/Tyr204 brings the donor and acceptor AlphaScreen® beads into close proximity, generating a signal that can be quantified on an EnVision reader (Perkin Elmer).
In general terms: Bead proximity is the source of the signal in Alpha formats.

For another assay, the system named is B9 (HRAS Q61L) cell line. The experiment in a line: B9 P-ERK cell activation assay (AlphaScreen). The format is cell-based, mouse. The conditions noted are these: for EC50: Mus musculus, P-ERK cell activation, B9, numeric bounds, read-out: Cell activity (EC50 μM) B9_pERK. How it is done:
as §1, §2

The subject of assay [2] is A375 (BRAF V600E) cell line. The experiment in a line: A375 P-ERK inhibition assay (AlphaScreen). The format is cell-based, human. The conditions noted are these: for IC50: Homo sapiens, A-375, A375_P-ERK. As for the experimental part: as §2
The next assay has as its target T1, BRAF V600E (Homo sapiens, UniProt P15056, V600E).
T1 construct: purchased Upstate Biotechnology
The experiment in a line: BRAF V600E biochemical kinase activity assay (AlphaScreen, biotin-MEK1 substrate). The conditions noted are these: BRAF V600E biochemical inhibitory activity. How it is done: Compounds to be tested are diluted in dimethyl sulfoxide to a concentration of 0.1 mM. These are serially diluted 15 μL into 30 μL of dimethyl sulfoxide seven times in 96 well plates for a total of 8 dilution points, and for each dilution point 1 μL is added to a well of an assay plate. […] The reaction is started with addition of 10 μL of 200 μM ATP (i.e. final 100 μM ATP). After incubation of the kinase reaction for 45 minutes at room temperature, 5 μL/well of Stop Solution is added (25 mM Hepes pH 7.5, 100 mM EDTA, 0.01% BSA with donor beads (Streptavidin coated beads, Perkin Elmer), acceptor beads (Protein A coated, Perkin Elmer), and anti-phosphor MEK1/2 antibody (CellSignal), each at final concentration 10 μg/mL). The plates are incubated for 3 hours at room temperature and read on Envision reader (Perkin Elmer). Phosphorylation of Mek1 results in binding of the anti-phosphor-MEK1/2antibody and association of the donor and acceptor beads such that signal correlates with kinase activity. The signal versus compound concentration is used to determine the IC50.
The in vitro RAF kinase activities were determined by measuring phosphorylation of a biotinylated substrate peptide as described previously (Tsai, J. et al. Proc Natl Acad Sci USA 105, 3041-3046 (2008)). Compounds of formula (I), e.g., compound A, was also tested against a panel of 287 kinases at concentrations of 1 μM in duplicate. Kinases inhibited by over 50% were followed up by IC50 determination. The 287 kinases represent all major branches of the kinome phylogenetic tree. The inhibition screen of 287 kinases was carried out under contract as complementary panels at Invitrogen (Life Technologies, Wis., USA) SelectScreen™ profiling service, DiscoverX (CA, USA) KINOMEScan™ service, and Reaction Biology Corporation (PA, USA) Kinase HotSpot℠ service.

T1 sequence (P15056 whole entry V600E): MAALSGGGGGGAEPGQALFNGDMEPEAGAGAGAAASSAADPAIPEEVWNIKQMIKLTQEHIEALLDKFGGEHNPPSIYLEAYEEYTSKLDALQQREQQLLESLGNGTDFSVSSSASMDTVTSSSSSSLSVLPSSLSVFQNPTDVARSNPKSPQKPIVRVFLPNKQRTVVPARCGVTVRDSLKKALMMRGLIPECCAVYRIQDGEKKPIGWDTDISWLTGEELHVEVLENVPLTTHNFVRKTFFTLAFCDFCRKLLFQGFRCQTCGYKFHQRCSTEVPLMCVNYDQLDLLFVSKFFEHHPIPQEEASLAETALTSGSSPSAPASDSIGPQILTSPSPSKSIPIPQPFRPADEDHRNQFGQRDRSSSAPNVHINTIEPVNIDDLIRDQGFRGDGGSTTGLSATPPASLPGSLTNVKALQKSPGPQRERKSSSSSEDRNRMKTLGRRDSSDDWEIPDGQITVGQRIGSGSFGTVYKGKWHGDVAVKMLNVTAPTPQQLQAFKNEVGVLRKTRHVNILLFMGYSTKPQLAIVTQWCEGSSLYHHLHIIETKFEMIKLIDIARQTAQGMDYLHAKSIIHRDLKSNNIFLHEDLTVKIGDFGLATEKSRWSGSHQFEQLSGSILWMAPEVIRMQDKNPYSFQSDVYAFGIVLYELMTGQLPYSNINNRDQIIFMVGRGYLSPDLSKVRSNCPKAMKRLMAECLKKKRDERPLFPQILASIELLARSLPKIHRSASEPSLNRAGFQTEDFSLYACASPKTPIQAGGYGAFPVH

Turning to `CCN(C)S(=O)(=O)Nc1cccc(-c2nc(C(C)(C)C)sc2-c2ccnc(N)n2)c1F` [P-0352, 5-(2-aminopyrimidin-4-yl)-2-tert-butyl-4-[3-[[ethyl(methyl)sulfamoyl]amino]-2-fluoro-phenyl]thiazole], the pERK activation result is listed as “significantly reduced pERK activation; also recorded: markedly reduced pERK activation” in assay [1] (RAS mutant cell line IPC-298, one hour treatment) and “significantly reduced pERK activation; also recorded: markedly reduced pERK activation” with B9 (HRAS Q61L) cell line (RAS mutant cell line B9, one hour treatment). Further, the pERK inhibition result in assay [2] (BRAF V600E cell line A375) is “preserving the potent inhibitory activity; also recorded: moderate decrease in pERK IC50”.

With `CC(C)S(=O)(=O)Nc1ccc(F)c(C(=O)c2c[nH]c3ncnc(NCC4CC4)c23)c1F` [P-2047, N-[3-[4-(cyclopropylmethylamino)-7H-pyrrolo[2,3-d]pyrimidine-5-carbonyl]-2,4-difluoro-phenyl]propane-2-sulfonamide], the IC50 (in assay [2]; at BRAF V600E) was 0.0001 to 1 µM each time.

For the molecule `CN(C)S(=O)(=O)Nc1cc(Cl)cc(C(=O)c2c[nH]c3ncc(-c4cnc(C5CC5)nc4)cc23)c1F` [P-2175, 3-[5-chloro-3-(dimethylsulfamoylamino)-2-fluoro-benzoyl]-5-(2-cyclopropylpyrimidin-5-yl)-1H-pyrrolo[2,3-b]pyridine], in assay [1] (numeric bounds), the EC50 was greater than 10 µM. For the same molecule, the IC50 (in assay [2]; at BRAF V600E) was 0.0001 to 1 µM throughout.

Regarding `CN(C)S(=O)(=O)Nc1ccc(F)c(C(=O)c2c[nH]c3ncnc(NCC4CC4)c23)c1F` [P-2048, 4-(cyclopropylmethylamino)-5-[3-(dimethylsulfamoylamino)-2,6-difluoro-benzoyl]-7H-pyrrolo[2,3-d]pyrimidine], the EC50 in assay [1] (numeric bounds) is greater than 10 µM. In addition, the IC50 (in assay [2]; on BRAF V600E) was 0.0001 to 1 µM in each case.

Turning to `CCN(C)S(=O)(=O)Nc1cc(Cl)cc(-c2cn(C(C)C)nc2-c2ccnc(NC[C@H](C)NC(=O)OC)n2)c1F` [P-2164, methyl N-[(1S)-2-[[4-[4-[5-chloro-3-[[ethyl(methyl)sulfamoyl]amino]-2-fluoro-phenyl]-1-isopropyl-pyrazol-3-yl]pyrimidin-2-yl]amino]-1-methyl-ethyl]carbamate], the EC50 in assay [1] (numeric bounds) was greater than 10 µM. Further, the IC50 (in assay [2]; against BRAF V600E) was 0.0001 to 1 µM each time.

As for `CC1(C)OCC(CNc2ncnc3[nH]cc(C(=O)c4cccc(NS(=O)(=O)N5CCCC5)c4F)c23)O1` (stereo not drawn) [P-2095, N-[3-[4-[(2,2-dimethyl-1,3-dioxolan-4-yl)methylamino]-7H-pyrrolo[2,3-d]pyrimidine-5-carbonyl]-2-fluoro-phenyl]pyrrolidine-1-sulfonamide], the EC50 (in assay [1] (numeric bounds); in the assay on B9 (HRAS Q61L) cell line) was greater than 10 µM each time. In addition, in assay [2], the IC50 was in the range of 0.0001 to 1 µM.

For the molecule `O=C(c1c(F)ccc(NS(=O)(=O)N2CCCC2)c1F)c1c[nH]c2ncncc12` [P-2029, N-[2,4-difluoro-3-(7H-pyrrolo[2,3-d]pyrimidine-5-carbonyl)phenyl]pyrrolidine-1-sulfonamide], the EC50 (in assay [1] (numeric bounds); with B9 (HRAS Q61L) cell line) was greater than 10 µM throughout. The concentration for half-maximal inhibition (IC50) in assay [2] is 0.0001 to 1 µM.

Consider `O=C(c1cccc(NS(=O)(=O)N2CCCC2)c1F)c1c[nH]c2ncnc(NCCC(F)(F)F)c12` [P-2112, N-[2-fluoro-3-[4-(3,3,3-trifluoropropylamino)-7H-pyrrolo[2,3-d]pyrimidine-5-carbonyl]phenyl]pyrrolidine-1-sulfonamide], for which the EC50 in assay [1] (numeric bounds) is greater than 10 µM. Moreover, the IC50 (in assay [2]; against BRAF V600E) was 0.0001 to 1 µM each time.

With `COC(=O)N[C@@H](C)CNc1nccc(-c2nn(C(C)C)cc2-c2cc(Cl)cc(NS(=O)(=O)N3CCCC3)c2F)n1` [P-2160, methyl N-[(1S)-2-[[4-[4-[5-chloro-2-fluoro-3-(pyrrolidin-1-ylsulfonylamino)phenyl]-1-isopropyl-pyrazol-3-yl]pyrimidin-2-yl]amino]-1-methyl-ethyl]carbamate], in assay [1] (class symbols), the EC50 fell in the range of 0.0001 to 1 µM. Also, the IC50 (in assay [2]; on BRAF V600E) was 0.0001 to 1 µM in each case.

Consider `COC(=O)N[C@@H](C)CNc1nccc(-c2sc(C(C)(C)C)nc2-c2cccc(NS(=O)(=O)N3CC[C@@H](F)C3)c2F)n1` [P-2138, methyl N-[(1S)-2-[[4-[2-tert-butyl-4-[2-fluoro-3-[[(3R)-3-fluoropyrrolidin-1-yl]sulfonylamino]phenyl]thiazol-5-yl]pyrimidin-2-yl]amino]-1-methyl-ethyl]carbamate], for which, in the assay with B9 (HRAS Q61L) cell line, the EC50 is greater than 10 µM. Besides, the IC50 (in assay [2]; against BRAF V600E) was 0.0001 to 1 µM each time.

As for `O=C(c1c(F)ccc(NS(=O)(=O)C2CCCC2)c1F)c1c[nH]c2ncncc12` [P-2028, N-[2,4-difluoro-3-(7H-pyrrolo[2,3-d]pyrimidine-5-carbonyl)phenyl]cyclopentanesulfonamide], the EC50 (in assay [1] (numeric bounds); in the assay with B9 (HRAS Q61L) cell line) was greater than 10 µM throughout. This molecule also displayed an IC50 in assay [2] greater than 10 µM.

With `CC(C)S(=O)(=O)Nc1ccc(F)c(C(=O)c2c[nH]c3nccc(Cl)c23)c1F` [P-2013, N-[3-(4-chloro-1H-pyrrolo[2,3-b]pyridine-3-carbonyl)-2,4-difluoro-phenyl]propane-2-sulfonamide], the IC50 (in assay [2]; at BRAF V600E) was 0.0001 to 1 µM in each case.

As for `COC(=O)N[C@@H](C)CNc1nccc(-c2sc(-c3ccccc3)nc2-c2cccc(NS(=O)(=O)N3CC[C@@H](F)C3)c2F)n1` [P-2152, methyl N-[(1S)-2-[[4-[4-[2-fluoro-3-[[(3R)-3-fluoropyrrolidin-1-yl]sulfonylamino]phenyl]-2-phenyl-thiazol-5-yl]pyrimidin-2-yl]amino]-1-methyl-ethyl]carbamate], the EC50 in assay [1] (class symbols) lay in the range of 0.0001 to 1 µM. Further, the IC50 (in assay [2]; at BRAF V600E) was 0.0001 to 1 µM each time.

Consider `O=C(c1cccc(NS(=O)(=O)N2CCCC2)c1F)c1c[nH]c2ncnc(NCC(F)(F)F)c12` [P-2077, N-[2-fluoro-3-[4-(2,2,2-trifluoroethylamino)-7H-pyrrolo[2,3-d]pyrimidine-5-carbonyl]phenyl]pyrrolidine-1-sulfonamide], for which the EC50 in assay [1] (numeric bounds) is greater than 10 µM. For the same molecule, the IC50 (in assay [2]; against BRAF V600E) was 0.0001 to 1 µM throughout.

Consider `CCCC(C)S(=O)(=O)Nc1ccc(F)c(C(=O)c2c[nH]c3ncnc(NCC4CC4)c23)c1F` (stereo not drawn) [P-2051, N-[3-[4-(cyclopropylmethylamino)-7H-pyrrolo[2,3-d]pyrimidine-5-carbonyl]-2,4-difluoro-phenyl]pentane-2-sulfonamide], for which the IC50 (in assay [2]; against BRAF V600E) was 0.0001 to 1 µM each time.
